Among the data in patent publication US12421211B2, “Heterocyclic compounds” (Hoffmann-La Roche Inc., priority 2021, dated 2025) are IC90 values, retold here.

Structures can show the parent of a compound that is named as a salt.

The IC90 is the concentration at which the effect reaches the 90% level.

The test system of the experiment is Acinetobacter baumannii ATCC17961. As to the kind of experiment: Antimicrobial susceptibility testing: 90% growth inhibitory concentration (IC90) determination. In kind it is cell-based. To be noted: Acinetobacter baumannii, ATCC17961, 16 h, 90% growth inhibitory concentration, Acinetobacter baumannii ATCC17961, Iso-Sensitest broth, OD 600 nm over 16 h; read-out: ATCC 17961 IC90. Summed up: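 A. baumannii ATCC17961 at ~5×10^5 CFU/ml in Iso-Sensitest broth exposed to 10-point twofold dilutions (e.g. 50–0.097 μM final), 35±2° C. OD600 read every 20 minutes over 16h; IC50 and IC90 derived from inhibition during logarithmic growth.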

`Cc1nn(CC(=O)Nc2ccccc2F)cc1-c1ccc(-c2cnc(C(=O)Nc3ccc(C(=O)N4CCN(C(=O)C5CC[N+](C)(C)CC5)CC4)c(Cl)c3)n2C)c(F)c1F` [Example G6, N-[3-chloro-4-[4-(1,1-dimethylpiperidin-1-ium-4-carbonyl)piperazine-1-carbonyl]phenyl]-5-[2,3-difluoro-4-[1-[2-(2-fluoroanilino)-2-oxo-ethyl]-3-methyl-pyrazol-4-yl]phenyl]-1-methyl-imidazole-2-carboxamide; formate]: the IC90 is 140 nM.

Regarding `COc1ccccc1NC(=O)Cn1cc(-c2ccc(-c3cnc(C(=O)Nc4ccc(C(=O)N5CCN(C(=O)C6CC[N+](C)(C)CC6)CC5)c(Cl)c4)n3C)c(F)c2F)c(C)n1` [Example G7, N-[3-chloro-4-[4-(1,1-dimethylpiperidin-1-ium-4-carbonyl)piperazine-1-carbonyl]phenyl]-5-[2,3-difluoro-4-[1-[2-(2-methoxyanilino)-2-oxo-ethyl]-3-methyl-pyrazol-4-yl]phenyl]-1-methyl-imidazole-2-carboxamide; formate], the IC90 is 550 nM.

For the compound `Cc1nn(CC(=O)Nc2ccc(F)cc2)cc1-c1ccc(-c2cnc(C(=O)Nc3ccc(C(=O)N4CCN(C(=O)C5CC[N+](C)(C)CC5)CC4)c(Cl)c3)n2C)c(F)c1F` [Example G8, N-[3-chloro-4-[4-(1,1-dimethylpiperidin-1-ium-4-carbonyl)piperazine-1-carbonyl]phenyl]-5-[2,3-difluoro-4-[1-[2-(4-fluoroanilino)-2-oxo-ethyl]-3-methyl-pyrazol-4-yl]phenyl]-1-methyl-imidazole-2-carboxamide; formate], the 90% effect concentration (IC90) was 84 nM.

With `Cc1nn(CC(=O)NC2CCCCC2)cc1-c1ccc(-c2cnc(C(=O)Nc3ccc(C(=O)N4CCN(C(=O)C5CC[N+](C)(C)CC5)CC4)c(Cl)c3)n2C)c(F)c1F` [Example G9, N-[3-chloro-4-[4-(1,1-dimethylpiperidin-1-ium-4-carbonyl)piperazine-1-carbonyl]phenyl]-5-[4-[1-[2-(cyclohexylamino)-2-oxo-ethyl]-3-methyl-pyrazol-4-yl]-2,3-difluoro-phenyl]-1-methyl-imidazole-2-carboxamide; formate], the IC90 was determined as 210 nM.

For the compound `Cc1nn(CC(=O)Nc2nccs2)cc1-c1ccc(-c2cnc(C(=O)Nc3ccc(C(=O)N4CCN(C(=O)C5CC[N+](C)(C)CC5)CC4)c(Cl)c3)n2C)c(F)c1F` [Example G10, N-[3-chloro-4-[4-(1,1-dimethylpiperidin-1-ium-4-carbonyl)piperazine-1-carbonyl]phenyl]-5-[2,3-difluoro-4-[3-methyl-1-[2-oxo-2-(thiazol-2-ylamino)ethyl]pyrazol-4-yl]phenyl]-1-methyl-imidazole-2-carboxamide; formate], the IC90 stood at 120 nM.

Turning to `Cc1nn(CC(=O)Nc2cn[nH]c2)cc1-c1ccc(-c2cnc(C(=O)Nc3ccc(C(=O)N4CCN(C(=O)C5CC[N+](C)(C)CC5)CC4)c(Cl)c3)n2C)c(F)c1F` [Example G11, N-[3-chloro-4-[4-(1,1-dimethylpiperidin-1-ium-4-carbonyl)piperazine-1-carbonyl]phenyl]-5-[2,3-difluoro-4-[3-methyl-1-[2-oxo-2-(1H-pyrazol-4-ylamino)ethyl]pyrazol-4-yl]phenyl]-1-methyl-imidazole-2-carboxamide; formate], the IC90 was 710 nM.

In the case of `Cc1nn(CC(=O)Nc2cnn(C)c2)cc1-c1ccc(-c2cnc(C(=O)Nc3ccc(C(=O)N4CCN(C(=O)C5CC[N+](C)(C)CC5)CC4)c(Cl)c3)n2C)c(F)c1F` [Example G12, N-[3-chloro-4-[4-(1,1-dimethylpiperidin-1-ium-4-carbonyl)piperazine-1-carbonyl]phenyl]-5-[2,3-difluoro-4-[3-methyl-1-[2-[(1-methylpyrazol-4-yl)amino]-2-oxo-ethyl]pyrazol-4-yl]phenyl]-1-methyl-imidazole-2-carboxamide; formate], the IC90 came to 450 nM.

Take `Cc1nn(CC(=O)Nc2cccc(F)c2)cc1-c1ccc(-c2cnc(C(=O)Nc3ccc(C(=O)N4CCN(C(=O)C5CC[N+](C)(C)CC5)CC4)c(Cl)c3)n2C)c(F)c1F` [Example G13, N-[3-chloro-4-[4-(1,1-dimethylpiperidin-1-ium-4-carbonyl)piperazine-1-carbonyl]phenyl]-5-[2,3-difluoro-4-[1-[2-(3-fluoroanilino)-2-oxo-ethyl]-3-methyl-pyrazol-4-yl]phenyl]-1-methyl-imidazole-2-carboxamide; chloride]: the IC90 was 130 nM.

Turning to `Cc1nn(CC(=O)Nc2ccccn2)cc1-c1ccc(-c2cnc(C(=O)Nc3ccc(C(=O)N4CCN(C(=O)C5CC[N+](C)(C)CC5)CC4)c(Cl)c3)n2C)c(F)c1F` [Example G14, N-[3-chloro-4-[4-(1,1-dimethylpiperidin-1-ium-4-carbonyl)piperazine-1-carbonyl]phenyl]-5-[2,3-difluoro-4-[3-methyl-1-[2-oxo-2-(2-pyridylamino)ethyl]pyrazol-4-yl]phenyl]-1-methyl-imidazole-2-carboxamide; formate], the IC90 amounted to 89 nM.

In the case of `Cc1nn(CC(=O)Nc2ccc[n+](C)c2)cc1-c1ccc(-c2cnc(C(=O)Nc3ccc(C(=O)N4CCN(C(=O)C5CC[N+](C)(C)CC5)CC4)c(Cl)c3)n2C)c(F)c1F` [Example G15, N-[3-chloro-4-[4-(1,1-dimethylpiperidin-1-ium-4-carbonyl)piperazine-1-carbonyl]phenyl]-5-[2,3-difluoro-4-[3-methyl-1-[2-[(1-methylpyridin-1-ium-3-yl)amino]-2-oxo-ethyl]pyrazol-4-yl]phenyl]-1-methyl-imidazole-2-carboxamide; diformate], the IC90 turned out to be 300 nM.

As for `Cc1nn(CC(=O)Nc2ncccn2)cc1-c1ccc(-c2cnc(C(=O)Nc3ccc(C(=O)N4CCN(C(=O)C5CC[N+](C)(C)CC5)CC4)c(Cl)c3)n2C)c(F)c1F` [Example G16, N-[3-chloro-4-[4-(1,1-dimethylpiperidin-1-ium-4-carbonyl)piperazine-1-carbonyl]phenyl]-5-[2,3-difluoro-4-[3-methyl-1-[2-oxo-2-(pyrimidin-2-ylamino)ethyl]pyrazol-4-yl]phenyl]-1-methyl-imidazole-2-carboxamide; formate], the IC90 is 1100 nM.

As to `Cc1nn(CC(=O)Nc2ccncc2)cc1-c1ccc(-c2cnc(C(=O)Nc3ccc(C(=O)N4CCN(C(=O)C5CC[N+](C)(C)CC5)CC4)c(Cl)c3)n2C)c(F)c1F` [Example G17, N-[3-chloro-4-[4-(1,1-dimethylpiperidin-1-ium-4-carbonyl)piperazine-1-carbonyl]phenyl]-5-[2,3-difluoro-4-[3-methyl-1-[2-oxo-2-(4-pyridylamino)ethyl]pyrazol-4-yl]phenyl]-1-methyl-imidazole-2-carboxamide; chloride], the IC90 stood at 720 nM.

As for `Cc1c(-c2ccc(-c3cnc(C(=O)Nc4ccc(C(=O)N5CCN(C(=O)C6CC[N+](C)(C)CC6)CC5)c(Cl)c4)n3C)c(F)c2F)cnn1CC(=O)NC(C)(C)C` [Example G18, 5-[4-[1-[2-(tert-butylamino)-2-oxo-ethyl]-5-methyl-pyrazol-4-yl]-2,3-difluoro-phenyl]-N-[3-chloro-4-[4-(1,1-dimethylpiperidin-1-ium-4-carbonyl)piperazine-1-carbonyl]phenyl]-1-methyl-imidazole-2-carboxamide; formate], the IC90 is 510 nM.

Regarding `Cc1nn(CC(=O)NC2CCCOC2)cc1-c1ccc(-c2cnc(C(=O)Nc3ccc(C(=O)N4CCN(C(=O)C5CC[N+](C)(C)CC5)CC4)c(Cl)c3)n2C)c(F)c1F` (stereo not drawn) [Example G22, N-[3-chloro-4-[4-(1,1-dimethylpiperidin-1-ium-4-carbonyl)piperazine-1-carbonyl]phenyl]-5-[2,3-difluoro-4-[3-methyl-1-[2-oxo-2-(tetrahydropyran-3-ylamino)ethyl]pyrazol-4-yl]phenyl]-1-methyl-imidazole-2-carboxamide; formate], the IC90 turned out to be 670 nM.

With `Cc1nn(CC(=O)Nc2cccnn2)cc1-c1ccc(-c2cnc(C(=O)Nc3ccc(C(=O)N4CCN(C(=O)C5CC[N+](C)(C)CC5)CC4)c(Cl)c3)n2C)c(F)c1F` [Example G23, N-[3-chloro-4-[4-(1,1-dimethylpiperidin-1-ium-4-carbonyl)piperazine-1-carbonyl]phenyl]-5-[2,3-difluoro-4-[3-methyl-1-[2-oxo-2-(pyridazin-3-ylamino)ethyl]pyrazol-4-yl]phenyl]-1-methyl-imidazole-2-carboxamide; formate], the IC90 was 270 nM.

On to `Cc1c(-c2ccc(-c3cnc(C(=O)Nc4ccc(C(=O)N5CCN(C(=O)C6CC[N+](C)(C)CC6)CC5)c(Cl)c4)n3C)c(F)c2F)cnn1CC(=O)Nc1cccnn1` [Example G25, N-[3-chloro-4-[4-(1,1-dimethylpiperidin-1-ium-4-carbonyl)piperazine-1-carbonyl]phenyl]-5-[2,3-difluoro-4-[5-methyl-1-[2-oxo-2-(pyridazin-3-ylamino)ethyl]pyrazol-4-yl]phenyl]-1-methyl-imidazole-2-carboxamide; formate], for which the IC90 stood at 1000 nM.

With `Cc1nn(CC(=O)NC2CCC(F)(F)CC2)cc1-c1ccc(-c2cnc(C(=O)Nc3ccc(C(=O)N4CCN(C(=O)C5CC[N+](C)(C)CC5)CC4)c(Cl)c3)n2C)c(F)c1F` [Example G26, N-[3-chloro-4-[4-(1,1-dimethylpiperidin-1-ium-4-carbonyl)piperazine-1-carbonyl]phenyl]-5-[4-[1-[2-[(4,4-difluorocyclohexyl)amino]-2-oxo-ethyl]-3-methyl-pyrazol-4-yl]-2,3-difluoro-phenyl]-1-methyl-imidazole-2-carboxamide; formate], the 90% effect concentration (IC90) came out at 100 nM.

`Cc1nn(CC(=O)Nc2cccnc2)cc1-c1ccc(-c2cnc(C(=O)Nc3ccc(C(=O)N4CCN(C(=O)C5CC[N+](C)(C)CC5)CC4)c(Cl)c3)n2C)c(F)c1F` [Example G27, N-[3-chloro-4-[4-(1,1-dimethylpiperidin-1-ium-4-carbonyl)piperazine-1-carbonyl]phenyl]-5-[2,3-difluoro-4-[3-pyridylamino)ethyl] pyrazol-4-yl]phenyl]-1-methyl-imidazole-2-carboxamide; formate]: the 90% effect concentration (IC90) was 120 nM.
